# Laboratory results as given in PMC3131558, “Plitidepsin Has a Safe Cardiac Profile: A Comprehensive Analysis” (Marine Drugs, 2011).
# Tests used:
# [1] = tested on: human malignant cell lines; conditions: in vitro and in vivo, at nanomolar concentration ranges; cited from earlier work
# Description: Aplidin® (plitidepsin) is a cyclic depsipeptide originally isolated from the Mediterranean tunicate Aplidium albicans and currently produced by chemical synthesis. Plitidepsin has been proven to be active against several human malignant cell lines both in vitro and in vivo at nanomolar concentration ranges.
# [2] = tested on: guinea pig Langendorff preparation; conditions: exploratory study; cited from earlier work
# Description: (§1) Plitidepsin, a cyclic depsipeptide of marine origin, is an investigational drug currently in clinical development as a single agent as well as in combination with other anticancer agents for the treatment of different solid tumors and hematological malignancies. […] CAE ...
# HERG = conditions: preclinical, in vitro; cited from earlier work
# Description: as §1
# [3] = tested on: adult patients with advanced solid tumors or hematological malignancies; assay: Cardiac adverse events (CAEs) in phase I/II clinical trials of single-agent plitidepsin; type: in vivo, human; conditions: for CAE group: Miscellaneous Cardiac Adverse Events / CAE group: Myocardial Injury / CAE group: Rhythm Abnormalities / CAE subgroup: Irregular Supraventricular Tachycardia / CAE subgroup: Other Myocardial Injury / CAE subgroup: Other Rhythm Abnormalities / CAE subgroup: Possible Ischemic Related / CAE subgroup: Regular Supraventricular Tachycardia / CAE: Acute myocardial infarction / CAE: Arrhythmia / CAE: Atrial fibrillation / CAE: Atrial flutter / CAE: Atrioventricular block / CAE: Cardiac amyloidosis / CAE: Cardiac failure / CAE: Cardiac troponin I increased / CAE: Cardiomegaly / CAE: Cardiomyopathy / CAE: Change in electrocardiogram / CAE: Chest pain / CAE: Ejection fraction decreased / CAE: Electrocardiogram QT prolonged / CAE: Electrocardiogram ST-T change / CAE: Heart rate irregular / CAE: Hypertension / CAE: Hypotension / CAE: Myocardial ischemia / CAE: Palpitations / CAE: Pericardial effusion / CAE: Sinus tachycardia / CAE: Supraventricular arrhythmia / CAE: Supraventricular tachycardia / CAE: Tachycardia / CAE: Ventricular hypokinesia / Total Adverse Events (cardiac): regardless of relationship
# Description: Clinical trials included in this cardiac safety analysis were 4 phase I and 14 phase II studies evaluating plitidepsin as single-agent chemotherapy in a total of 578 adult patients (see details in Table 1). All available information on CAEs was retrieved from Pharma Mar’s internal Pharmacovigilance and Clinical Trials databases. The reviewed sources of information were Case Report Forms (CRFs), serious adverse event (SAE) reports, follow-up reports and supplementary reports attached or requested. Median follow-up was 12.0 months (95% CI, 7.6–13.8) for phase I trials and 12.3 months for phase II trials (95% CI, 11.0–13.7). Cutoff for data analysis was 20 November 2008.
# All adverse events (AEs) with preferred terms of the Medical Dictionary for Regulatory Activities (MedDRA) that could be potentially classified as cardiac were evaluated. Additionally, events included in other systems as well in those patients with any vascular risk associated (prior history or within the trial) were also reviewed. Laboratory data were also reviewed in those cases with grade 3/4 creatine phosphokinase increase and/or troponin ([…] or troponin I) elevations. Patients’ prior history and baseline information were searched for any associated vascular risk (diabetes, hypercholesterolemia, hypertension, smoking, prior myocardial infarction or angina, etc.). All events retrieved using the aforementioned criteria were reviewed to identify and exclude from analysis potential CAEs due to obvious cancer-related symptoms (e.g., sinusal tachycardia in anemic patients, chest pain obviously related to tumor involvement of the chest). […] The information obtained was tabulated and a descriptive analysis is reported here.
# [4] = Population PK exposure (Cmax, AUC0-28day) by CAE category; type: in vivo, human; conditions: whole blood, mean (SD)
# Procedure: Pharmacokinetic (PK) data available from individual clinical trials (four phase I studies and nine phase II studies; see details in Table 1) and/or simulated data using population PK analyses were correlated with the occurrence of CAEs. In the individual studies, doses ranged from 0.13 to 8.00 mg/m^2, and were administered as 1 h or 24 h infusion weekly, 3 h or 24 h infusion bi-weekly, or 1 h infusion for 5 consecutive days every 3 weeks. To evaluate the potential relationship between blood plitidepsin concentrations and QTc and HR values, a total of 90 patients who had ECGs performed during treatment with plitidepsin and PK data during first infusion were analyzed. The plitidepsin concentration at the time when the ECG had been obtained was calculated using the whole blood plitidepsin concentration at the ECG times in which they were simulated taking the individual Bayesian PK parameters of the final population PK model and considering the real treatment history of each patient. In total, 411 patients and 5585 plitidepsin concentration measurements (including 2900 blood and 2685 plasma concentrations) were pooled in the population PK analysis. An open, 3-compartment disposition model with linear elimination and linear distribution from the central compartment to peripheral compartments was used to describe the PK of plitidepsin in plasma. Between and within subject variabilities were assumed to be log-normally distributed. PK exposure parameters (maximum concentration in plasma (Cmax) and area under the curve (AUC) from day 0 to day 28) and other dose-independent PK parameters (clearance, half-life, etc.) were used to evaluate the relationship between patient PK characteristics and the appearance of CAEs. For the statistical analysis of the relationship between the exposure parameters and the development or not of a CAE, a logistic regression model was used to analyze the incidence of the event.
substance,measurement,setting,value
plitidepsin,Activity against several human malignant cell lines,[1],active
same,Cardiac effects of escalating doses in guinea pig Langendorff preparation,[2],did not show a cardiotoxic profile
same,Cardiotoxic profile in HERG assay,HERG,did not show a cardiotoxic profile
same,CAE group: Miscellaneous Cardiac Adverse Events,[3]; All studies (n = 578),6 (1.0%) Patients (%)
same,CAE group: Myocardial Injury,[3]; All studies (n = 578),17 (3.0%) Patients (%)
same,CAE group: Rhythm Abnormalities,[3]; All studies (n = 578),31 (5.4%) Patients (%)
same,CAE subgroup: Irregular Supraventricular Tachycardia,[3]; All studies (n = 578),15 (2.6%) Patients (%)
same,CAE subgroup: Other Myocardial Injury,[3]; All studies (n = 578),7 (1.2%) Patients (%)
same,CAE subgroup: Other Rhythm Abnormalities,[3]; All studies (n = 578),13 (2.2%) Patients (%)
same,CAE subgroup: Possible Ischemic Related,[3]; All studies (n = 578),10 (1.7%) Patients (%)
same,CAE subgroup: Regular Supraventricular Tachycardia,[3]; All studies (n = 578),6 (1.0%) Patients (%)
same,CAE: Acute myocardial infarction,[3]; All studies (n = 578),1 (0.2%) Patients (%)
same,CAE: Arrhythmia,[3]; All studies (n = 578),1 (0.2%) Patients (%)
same,CAE: Atrial fibrillation,[3]; All studies (n = 578),11 (1.9%) Patients (%)
same,CAE: Atrial flutter,[3]; All studies (n = 578),5 (0.9%) Patients (%)
same,CAE: Atrioventricular block,[3]; All studies (n = 578),1 (0.2%) Patients (%)
same,CAE: Cardiac amyloidosis,[3]; All studies (n = 578),1 (0.2%) Patients (%)
same,CAE: Cardiac failure,[3]; All studies (n = 578),3 (0.5%) Patients (%)
same,CAE: Cardiac troponin I increased,[3]; All studies (n = 578),1 (0.2%) Patients (%)
same,CAE: Cardiomegaly,[3]; All studies (n = 578),1 (0.2%) Patients (%)
same,CAE: Cardiomyopathy,[3]; All studies (n = 578),2 (0.3%) Patients (%)
same,CAE: Change in electrocardiogram,[3]; All studies (n = 578),1 (0.2%) Patients (%)
same,CAE: Chest pain,[3]; All studies (n = 578),4 (0.7%) Patients (%)
same,CAE: Ejection fraction decreased,[3]; All studies (n = 578),1 (0.2%) Patients (%)
same,CAE: Electrocardiogram QT prolonged,[3]; All studies (n = 578),5 (0.9%) Patients (%)
same,CAE: Electrocardiogram ST-T change,[3]; All studies (n = 578),1 (0.2%) Patients (%)
same,CAE: Heart rate irregular,[3]; All studies (n = 578),1 (0.2%) Patients (%)
same,CAE: Hypertension,[3]; All studies (n = 578),1 (0.2%) Patients (%)
same,CAE: Hypotension,[3]; All studies (n = 578),2 (0.3%) Patients (%)
same,CAE: Myocardial ischemia,[3]; All studies (n = 578),3 (0.5%) Patients (%)
same,CAE: Palpitations,[3]; All studies (n = 578),6 (1.0%) Patients (%)
same,CAE: Pericardial effusion,[3]; All studies (n = 578),3 (0.5%) Patients (%)
same,CAE: Sinus tachycardia,[3]; All studies (n = 578),1 (0.2%) Patients (%)
same,CAE: Supraventricular arrhythmia,[3]; All studies (n = 578),1 (0.2%) Patients (%)
same,CAE: Supraventricular tachycardia,[3]; All studies (n = 578),1 (0.2%) Patients (%)
same,CAE: Tachycardia,[3]; All studies (n = 578),3 (0.5%) Patients (%)
same,CAE: Ventricular hypokinesia,[3]; All studies (n = 578),1 (0.2%) Patients (%)
same,Total Adverse Events (cardiac),[3]; All studies (n = 578),46 (8.0%) Patients (%)
same,CAE group: Miscellaneous Cardiac Adverse Events,[3]; Phase II studies (n = 364),3 (0.8%) Patients (%)
same,CAE group: Myocardial Injury,[3]; Phase II studies (n = 364),14 (3.8%) Patients (%)
same,CAE group: Rhythm Abnormalities,[3]; Phase II studies (n = 364),25 (6.9%) Patients (%)
same,CAE subgroup: Irregular Supraventricular Tachycardia,[3]; Phase II studies (n = 364),14 (3.8%) Patients (%)
same,CAE subgroup: Other Myocardial Injury,[3]; Phase II studies (n = 364),6 (1.6%) Patients (%)
same,CAE subgroup: Other Rhythm Abnormalities,[3]; Phase II studies (n = 364),13 (3.6%) Patients (%)
same,CAE subgroup: Possible Ischemic Related,[3]; Phase II studies (n = 364),8 (2.2%) Patients (%)
same,CAE subgroup: Regular Supraventricular Tachycardia,[3]; Phase II studies (n = 364),1 (0.3%) Patients (%)
same,CAE: Acute myocardial infarction,[3]; Phase II studies (n = 364),1 (0.3%) Patients (%)
same,CAE: Arrhythmia,[3]; Phase II studies (n = 364),1 (0.3%) Patients (%)
same,CAE: Atrial fibrillation,[3]; Phase II studies (n = 364),10 (2.7%) Patients (%)
same,CAE: Atrial flutter,[3]; Phase II studies (n = 364),5 (1.4%) Patients (%)
same,CAE: Atrioventricular block,[3]; Phase II studies (n = 364),1 (0.3%) Patients (%)
same,CAE: Cardiac amyloidosis,[3]; Phase II studies (n = 364),1 (0.3%) Patients (%)
same,CAE: Cardiac failure,[3]; Phase II studies (n = 364),2 (0.5%) Patients (%)
same,CAE: Cardiac troponin I increased,[3]; Phase II studies (n = 364),1 (0.3%) Patients (%)
same,CAE: Cardiomegaly,[3]; Phase II studies (n = 364),1 (0.3%) Patients (%)
same,CAE: Cardiomyopathy,[3]; Phase II studies (n = 364),2 (0.5%) Patients (%)
same,CAE: Change in electrocardiogram,[3]; Phase II studies (n = 364),1 (0.3%) Patients (%)
same,CAE: Chest pain,[3]; Phase II studies (n = 364),2 (0.5%) Patients (%)
same,CAE: Ejection fraction decreased,[3]; Phase II studies (n = 364),1 (0.3%) Patients (%)
same,CAE: Electrocardiogram QT prolonged,[3]; Phase II studies (n = 364),5 (1.4%) Patients (%)
same,CAE: Electrocardiogram ST-T change,[3]; Phase II studies (n = 364),1 (0.3%) Patients (%)
same,CAE: Heart rate irregular,[3]; Phase II studies (n = 364),1 (0.3%) Patients (%)
same,CAE: Hypertension,[3]; Phase II studies (n = 364),0 (0.0%) Patients (%)
same,CAE: Hypotension,[3]; Phase II studies (n = 364),2 (0.5%) Patients (%)
same,CAE: Myocardial ischemia,[3]; Phase II studies (n = 364),3 (0.8%) Patients (%)
same,CAE: Palpitations,[3]; Phase II studies (n = 364),6 (1.6%) Patients (%)
same,CAE: Pericardial effusion,[3]; Phase II studies (n = 364),1 (0.3%) Patients (%)
same,CAE: Sinus tachycardia,[3]; Phase II studies (n = 364),1 (0.3%) Patients (%)
same,CAE: Supraventricular arrhythmia,[3]; Phase II studies (n = 364),0 (0.0%) Patients (%)
same,CAE: Supraventricular tachycardia,[3]; Phase II studies (n = 364),0 (0.0%) Patients (%)
same,CAE: Tachycardia,[3]; Phase II studies (n = 364),0 (0.0%) Patients (%)
same,CAE: Ventricular hypokinesia,[3]; Phase II studies (n = 364),1 (0.3%) Patients (%)
same,Total Adverse Events (cardiac),[3]; Phase II studies (n = 364),37 (10.2%) Patients (%)
same,Plitidepsin-related CAEs: chest pain,[3]; of 15 related CAEs,2 n
same,Plitidepsin-related CAEs: palpitations,[3]; of 15 related CAEs,4 n
same,Patients with a CAE who had a fatal outcome as a direct consequence,"[3]; related, unrelated or unknown CAEs",None
same,"Potentially life-threatening arrhythmias (e.g., ventricular arrhythmias)",[3]; within plitidepsin trials,did not occur
same,AUC0–28day,"[4]; Irregular supraventricular tachycardia (n = 12), simulated",3197 (3640) h·ng/mL
same,AUC0–28day,"[4]; Miscellaneous Cardiac Adverse Event (n = 7), simulated",2645 (1672) h·ng/mL
same,AUC0–28day,"[4]; No Cardiac adverse Event (n = 375), simulated from population PK model",3374 (4336) h·ng/mL
same,AUC0–28day,"[4]; Other myocardial injury (n = 4), simulated",4791 (6136) h·ng/mL
same,AUC0–28day,"[4]; Possible ischemic related (n = 7), simulated",3668 (1696) h·ng/mL
same,AUC0–28day,"[4]; Regular supraventricular tachycardia (n = 6), simulated",5277 (3997) h·ng/mL
same,AUC0–28day,"[4]; Rhythm Abnormalities (n = 25), simulated",3435 (3372) h·ng/mL
